Source: patent US20080027042A1, “Novel Aminopyridine Derivatives Having Aurora a Selective Inhibitory Action” (priority 2004, published 2008)
Where a name gives a salt, the structure may show the parent alone.

Experiments:
Aurora A = target: T1, Aurora A (Homo sapiens, UniProt O14965); assay: Aurora A inhibitory action (33P-ATP kinase assay, Kemptide substrate); assay type: biochemical; details: 20 μM ATP, 30° C., 20 minutes
T1 construct: histidine tag (N); made in house; host or cells: Escherichia coli BL21-CodonPlus(DE3)-RIL
T1 sequence (O14965 1-403): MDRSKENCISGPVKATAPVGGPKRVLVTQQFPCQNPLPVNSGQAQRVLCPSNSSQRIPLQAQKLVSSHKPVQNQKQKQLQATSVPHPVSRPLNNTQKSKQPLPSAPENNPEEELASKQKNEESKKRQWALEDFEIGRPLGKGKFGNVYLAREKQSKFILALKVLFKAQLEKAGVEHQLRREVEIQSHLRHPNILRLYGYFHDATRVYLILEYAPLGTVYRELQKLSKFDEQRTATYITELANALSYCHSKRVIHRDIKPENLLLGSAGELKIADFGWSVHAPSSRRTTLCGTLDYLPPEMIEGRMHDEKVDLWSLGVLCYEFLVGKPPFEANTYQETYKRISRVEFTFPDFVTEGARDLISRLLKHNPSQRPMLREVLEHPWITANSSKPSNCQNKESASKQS
Excerpt: Aurora A Inhibitory Action
(1) Purification of Aurora A
(§1) cDNA of Aurora A having histidine tag fused at the amino terminal was integrated into an expression vector, which was then highly expressed in Escherichia coli BL2 1-CodonPlus(DE3)-RIL cells. The Escherichia coli cells were recovered and solubilized, and then the histidine-tagged Aurora A protein was adsorbed onto a nickel chelate column and eluted from the column with imidazole. The active fraction was desalted with a desalting column to give a pure enzyme.
(2) Measurement of Activity of Aurora A
For measurement of the activity of Aurora A, the substrate used was Kemptide (Lys-Arg-Arg-Ala-Ser-Lys-Gly) (SEQ.ID.NO.: 1), a synthetic peptide purchased from Sigma-Aldrich, Inc. [Certificate of analysis (Upstate, Inc.)].
Reaction was conducted by a partial modification of a method by Upstate, Inc. [Kinase Profiler™ Assay Protocols]. The amount of the reaction liquid was 21.1 μL, and the composition of the reaction buffer (R2 buffer) was 50 mM Tris-hydrochloride buffer (pH 7.4)/15 mM magnesium acetate/0.2 mM ethylenediamine-N,N,N′,N′-tetraacetate (EDTA). To this, purified Aurora A, 100 μM of a substrate peptide, 20 μM of unlabeled adenosine triphosphate (ATP) and 0.5 μCi of [γ-^33P] labeled ATP (2,500 Ci/mmole or more) were added, and the mixture was reacted at 30° C. for 20 minutes. Then, 10 μL of 350 mM phosphate buffer was added to the reaction system to stop the reaction. The substrate peptide was adsorbed on a P81 paper filter 96-well plate and then washed with 130 mM phosphate buffer for several times. The radiation activity of the peptide was measured with a liquid scintillation counter. The [γ-^33P] labeled ATP was purchased from Amersham Biosciences Co., Ltd.
(§2) The compound to be tested was added to the reaction system such that a dilution series of the compound in dimethylsulfoxide was first prepared, and 1.1 μL of this solution was added. A control was provided by adding 1.1 μL of DMSO to the reaction system.

Aurora B = target: T2, Aurora B (Homo sapiens, UniProt Q96GD4); assay: Aurora B inhibitory action (33P-ATP kinase assay, Kemptide substrate); assay type: biochemical; details: 100 μM ATP, 30° C., 20 minutes
T2 construct: histidine tag (N); made in house; host or cells: Escherichia coli BL21-CodonPlus(DE3)-RIL
Excerpt: Aurora B Inhibitory Action
(1) Purification of Aurora B
as §1, with “of Aurora B having histidine” for “of Aurora A having histidine”, “Escherichia coli BL21-CodonPlus(DE3)-RIL cells. The” for “Escherichia coli BL2 1-CodonPlus(DE3)-RIL cells. The”
(2) Measurement of Activity of Aurora B
For measurement of the activity of Aurora B, the substrate used was Kemptide (Lys-Arg-Arg-Ala-Ser-Lys-Gly) (SEQ.ED.NO.: 1), a synthetic peptide purchased from Sigma-Aldrich, Inc. [Certificate of analysis (Upstate, Inc.)].
Reaction was conducted by a partial modification of the method of activity measurement for Aurora A. The amount of the reaction liquid was 21.1 μL, and the composition of the reaction buffer (R2 buffer) was 50 mM Tris-hydrochloride buffer (pH 7.4)/15 mM magnesium acetate/0.2 mM ethylenediamine-N,N,N′,N′-tetraacetate (EDTA). To this, purified Aurora B, 100 μM of a substrate peptide, 100 μM of unlabeled adenosine triphosphate (ATP) and 1 μCi of [γ-^33P] labeled ATP (2,500 Ci/mmole or more) were added, and the mixture was reacted at 30° C. for 20 minutes. Then, 10 μL of 350 mM phosphate buffer was added to the reaction system to stop the reaction. The substrate peptide was adsorbed on a P81 paper filter 96-well plate and then washed with 130 mM phosphate buffer for several times. The radiation activity of the peptide was measured with a liquid scintillation counter. The [γ-^33P] labeled ATP was purchased from Amersham Biosciences Co., Ltd.
as §2

T2 sequence (Q96GD4 whole entry): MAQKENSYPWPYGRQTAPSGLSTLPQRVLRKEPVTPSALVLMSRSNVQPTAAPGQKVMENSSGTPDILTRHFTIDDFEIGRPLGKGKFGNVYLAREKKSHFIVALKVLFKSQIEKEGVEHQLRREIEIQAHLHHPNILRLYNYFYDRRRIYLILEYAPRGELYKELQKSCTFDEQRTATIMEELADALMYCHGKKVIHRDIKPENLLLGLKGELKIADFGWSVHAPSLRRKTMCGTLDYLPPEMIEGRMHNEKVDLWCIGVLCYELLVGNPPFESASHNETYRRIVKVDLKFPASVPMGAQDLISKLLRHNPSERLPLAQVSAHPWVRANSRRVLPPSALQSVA

Row | IC50 (Aurora A) [nM] | IC50 (Aurora B) [nM] | Compound
1 | 1.3 | 760 | O=C(c1cccc(F)c1Cl)N1CCN(Cc2cccc(Nc3nccs3)n2)CC1 [Example 9, 6-((4-(2-chloro-3-fluorobenzoyl)piperazin-1-yl)methyl)-N-thiazol-2-ylpyridin-2-amine]
2 | 0.49 | 92 | O=C(c1cccc(Cl)c1F)N1C[C@@H]2C[C@H]1CN2Cc1cccc(Nc2nccs2)n1 [Example 10, 6-(((1S,4S)-5-(3-chloro-2-fluorobenzoyl)-2,5-diazabicyclo[2.2.1]hept-2-yl)methyl)-N-thiazol-2-ylpyridin-2-amine trifluoroacetate]
3 | 1.3 | 570 | O=C(c1cccc(Cl)c1F)N1C[C@H]2C[C@@H]1CN2Cc1cccc(Nc2nccs2)n1 [Example 11, 6-(((1R,4R)-5-(3-chloro-2-fluorobenzoyl)-2,5-diazabicyclo[2.2.1]hept-2-yl)methyl)-N-thiazol-2-ylpyridin-2-amine]
4 | 0.89 | 380 | O=C(c1cccc(C(F)(F)F)c1F)N1CCN(Cc2cccc(Nc3nccs3)n2)CC1 [Example 13, 6-((4-(2-fluoro-3-(trifluoromethyl)benzoyl)piperazin-1-yl)methyl)-N-thiazol-2-ylpyridin-2-amine trifluoroacetate]
5 | 1.4 | 1000 | O=C(c1cccc(C(F)F)c1F)N1CCN(Cc2cccc(Nc3nccs3)n2)CC1 [Example 15, 6-((4-(3-(difluoromethyl)-2-fluorobenzoyl)piperazin-1-yl)methyl)-N-thiazol-2-ylpyridin-2-amine]
6 | 1.8 | 1300 | O=C(c1cccc(Cl)c1F)N1CCN(Cc2cccc(Nc3cc[nH]n3)n2)CC1 [Example 16, 6-((4-(3-chloro-2-fluorobenzoyl)piperazin-1-yl)methyl)-N-1H-pyrazol-3-ylpyridin-2-amine]
7 | 1.8 | 830 | O=C(c1cccc(C(F)(F)F)c1Cl)N1CCN(Cc2cccc(Nc3cc[nH]n3)n2)CC1 [Example 18, 6-((4-(2-chloro-3-(trifluoromethyl)benzoyl)piperazin-1-yl)methyl)-N-1H-pyrazol-3-ylpyridin-2-amine trifluoroacetate]
8 | 1.1 | 1800 | O=C(c1cccc(Br)c1F)N1CCN(Cc2cccc(Nc3cc[nH]n3)n2)CC1 [Example 20, 6-((4-(3-bromo-2-fluorobenzoyl)piperazin-1-yl)methyl)-N-1H-pyrazol-3-ylpyridin-2-amine trifluoroacetate]
9 | 3.6 | 1200 | O=C(c1cccc(Cl)c1F)N1C[C@@H]2C[C@H]1CN2Cc1cccc(Nc2cc[nH]n2)n1 [Example 23, 6-(((1 S,4S)-5-(3-chloro-2-fluorobenzoyl)-2,5-diazabicyclo[2.2.1]hept-2-yl)methyl)-N-1H-pyrazol-3-ylpyridin-2-amine]
10 | 23 | 26000 | CC(c1cccc(Nc2cc[nH]n2)n1)N1CCN(C(=O)c2cccc(Cl)c2F)CC1 (stereo not shown) [Example 24, 6-(1-(4-(3-chloro-2-fluorobenzoyl)piperazin-1-yl)ethyl)-N-1H-pyrazol-3-ylpyridin-2-amine]
11 | 1.1 | 450 | Cc1cc(Nc2cccc(CN3CCN(C(=O)c4cccc(Cl)c4Cl)CC3)n2)n[nH]1 [Example 26, 6-((4-(2,3-dichlorobenzoyl)piperazin-1-yl)methyl)-N-(5-methyl-1H-pyrazol-3-yl)pyridin-2-amine trifluoroacetate]
12 | 3.3 | 1700 | Cc1cc(Nc2cccc(CN3C[C@@H]4C[C@H]3CN4C(=O)c3cccc(Cl)c3F)n2)n[nH]1 [Example 27, 6-(((1S,4S)-5-(3-chloro-2-fluorobenzoyl)-2,5-diazabicyclo[2.2.1]hept-2-yl)methyl)-N-(5-methyl-1H-pyrazol-3-yl)pyridin-2-amine]
13 | 37 | 760 | O=C(c1ccccc1)N1CCN(Cc2cccc(Nc3cc(C4CC4)[nH]n3)n2)CC1 [Example 31, 6-((4-benzoylpiperazin-1-yl)methyl)-N-(5-cyclopropyl-1H-pyrazol-3-yl)pyridin-2-amine]
14 | 3.7 | 4800 | O=C(c1cccc(Cl)c1F)N1CCN(Cc2cccc(Nc3ncns3)n2)CC1 [Example 32, 6-((4-(3-chloro-2-fluorobenzoyl)piperazin-1-yl)methyl)-N-1,2,4-thiadiazol-5-ylpyridin-2-amine]
15 | 50 | 3000 | C[C@@H]1CN(Cc2cccc(Nc3ncns3)n2)CCN1C(=O)c1ccccc1 [Example 33, 6-(((3R)-4-benzoyl-3-methylpiperazin-1-yl)methyl)-N-1,2,4-thiadiazol-5-ylpyridin-2-amine trifluoroacetate]
16 | 31 | 3400 | O=C(c1ccccc1)N1CCCN(Cc2cccc(Nc3ncns3)n2)CC1 [Example 35, 6-((4-benzoyl-1,4-diazepan-1-yl)methyl)-N-1,2,4-thiadiazol-5-ylpyridin-2-amine]
17 | 4.9 | 8800 | O=C(c1cccc(C(F)(F)F)c1)N1CCN(Cc2cccc(Nc3ncns3)n2)CC1 [Example 37, 6-((4-(3-(trifluoromethyl)benzoyl)piperazin-1-yl)methyl)-N-1,2,4-thiadiazol-5-ylpyridin-2-amine]
18 | 9.1 | 9500 | O=C(c1cccc(Br)c1)N1CCN(Cc2cccc(Nc3ncns3)n2)CC1 [Example 38, 6-((4-(3-bromobenzoyl)piperazin-1-yl)methyl)-N-1,2,4-thiadiazol-5-ylpyridin-2-amine]
19 | 2.9 | 5000 | O=C(c1cccc(C(F)F)c1F)N1CCN(Cc2cccc(Nc3ncns3)n2)CC1 [Example 41, 6-((4-(2-fluoro-3-(difluoromethyl)benzoyl)piperazin-1-yl)methyl)-N-1,2,4-thiadiazol-5-ylpyridin-2-amine trifluoroacetate]
20 | 1 | 530 | Cc1cnc(Nc2cccc(CN3CCN(C(=O)c4cccc(Cl)c4F)CC3)n2)s1 [Example 42, 6-((4-(3-chloro-2-fluorobenzoyl)piperazin-1-yl)methyl)-N-(5-methyl-thiazol-2-yl)pyridin-2-amine trifluoroacetate]

Row | Compound | IC50 (Aurora A) [nM] | IC50 (Aurora B) [nM]
21 | 6-((4-(3-(dimethylamino)benzoyl)piperazin-1-yl)methyl)-N-(5-chlorothiazol-2-yl)pyridin-2-amine [Example 73] | 17 | 410
22 | O=C(c1cccc(Br)c1F)N1CCN(Cc2cccc(Nc3nccs3)n2)CC1 [Example 12, 6-((4-(3-bromo-2-fluorobenzoyl)piperazin-1-yl)methyl)-N-thiazol-2-ylpyridin-2-amine trifluioroacetate] | 0.52 | 400
23 | O=C(Cc1ccc(Cl)c(Cl)c1)N1CCN(Cc2cccc(Nc3cc[nH]n3)n2)CC1 [Example 21, 6-((4-((3,4-dichlorophenyl)acetyl)piperazin-1-yl)methyl)-N-1H-pyrazol-3-ylpyridin-2-amine trifluoroacetate] | 16 | 6800
